Source: patent US20170334899A1, “AMINO-SUBSTITUTED ISOTHIAZOLES” (Bayer Pharma Aktiengesellschaft, priority 2014, published 2017)

Columns and labels:
CDK2/CycE = target: T1, CDK2/CycE (Homo sapiens, UniProt P24941); experiment: CDK2/CycE kinase assay (TR-FRET); format: biochemical; conditions: avg, read-out: CDK2 avg (IC50 [mol/l])
T1 construct: GST; purchased ProQinase GmbH (Freiburg, Germany); host or cells: insect cells (Sf9)
Outline: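 Read-out is a TR-FRET 665/620 nm emission ratio from EDTA-stopped reactions detected with anti-pRB(pSer807/pSer811), Eu-labelled anti-mouse IgG and streptavidin-XL665, scaled between no-enzyme and uninhibited wells. Reaction: Sf9-expressed GST-CDK2/GST-CycE, 15 min compound preincubation, 10 μM ATP, 0.75 μM biotin-peptide, 25 min, 22° C., pH 8.0 Tris buffer.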

[1] = target: T2, catalytic domain of human Bub1 (amino acids 704-1085) (Homo sapiens, UniProt O43683); experiment: Bub1 kinase assay (TR-FRET); format: biochemical; conditions: 10 μM ATP, avg, read-out: Bub1 avg (IC50 [mol/l])
T2 construct: catalytic domain of human Bub1 (amino acids 704-1085); His6 (N); made in house; host or cells: insect cells (Hi5)
Outline: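 Readout is the 665/620 nm TR-FRET ratio from anti-phosphoserine antibody, Eu-labelled anti-mouse IgG and streptavidin-XL665, scaled between no-enzyme and uninhibited controls. Reaction: 1 μM biotinylated peptide, 10 μM ATP, 60 min, 22 °C, after 15 min compound preincubation with His6-Bub1 (704-1085, insect-expressed, ~200 ng/ml).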

T2 sequence (O43683 704-1085): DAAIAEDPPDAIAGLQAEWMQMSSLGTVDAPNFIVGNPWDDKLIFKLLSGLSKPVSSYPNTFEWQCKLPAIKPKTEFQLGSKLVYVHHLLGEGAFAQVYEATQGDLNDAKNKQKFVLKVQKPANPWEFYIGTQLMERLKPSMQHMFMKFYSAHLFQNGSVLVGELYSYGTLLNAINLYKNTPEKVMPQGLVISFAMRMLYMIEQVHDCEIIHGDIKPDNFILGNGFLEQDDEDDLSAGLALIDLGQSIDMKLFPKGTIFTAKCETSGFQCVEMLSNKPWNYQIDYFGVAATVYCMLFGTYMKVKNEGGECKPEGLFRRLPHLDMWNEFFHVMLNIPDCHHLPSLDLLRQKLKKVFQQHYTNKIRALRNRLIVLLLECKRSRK

IC50 (CDK2/CycE) [µM] | IC50 [1] [µM] | SMILES
≥ 20 | ≥ 20 | Cc1nsc(Nc2ccc(C#N)cn2)c1C(=O)Nc1ccc(OC2CCNCC2)nc1 [Example 28, 5-[(5-Cyanopyridin-2-yl)amino]-3-methyl-N-[6-(piperidin-4-yloxy)pyridin-3-yl]-1,2-thiazole-4-carboxannide]
≥ 20 | ≥ 20 | Cc1nsc(Nc2ccc(C#N)cn2)c1C(=O)Nc1ccc(OC2CCN(CCF)CC2)nc1 [Example 29, 5-[(5-Cyanopyridin-2-yl)amino]-N-(6-{[1-(2-fluoroethyl)piperidin-4-yl]oxy}pyridin-3-yl)-3-methyl-1,2-thiazole-4-carboxamide]
≥ 20 | ≥ 20 | Cc1nsc(Nc2cnc3ccccc3n2)c1C(=O)Nc1ccc(OC2CCCN(C(=O)OC(C)(C)C)C2)nc1 (centres unmarked) [Example 31, tert-Butyl 3-{[5-({[3-methyl-5-(quinoxalin-2-ylamino)-1,2-thiazol-4-yl]carbonyl}-amino)pyridin-2-yl]oxy}piperidine-1-carboxylate]
≥ 20 | ≥ 20 | Cc1nsc(Nc2cnc3ccccc3n2)c1C(=O)Nc1ccc(OC2CCCN(CC(F)F)C2)nc1 (centres unmarked) [Example 33, N-(6-{[1-(2,2-Difluoroethyl)piperidin-3-yl]oxy}pyridin-3-yl)-3-methyl-5-(quinoxalin-2-ylamino)-1,2-thiazole-4-carboxamide]
≥ 20 | 18 | Cc1nsc(Nc2cnc(C(F)(F)F)cn2)c1C(=O)Nc1ccc(OCCNCCC(F)(F)F)nc1 [Example 323, 3-methyl-5-{[5-(trifluoromethyl)pyrazin-2-yl]amino}-N-(6-{2-[(3,3,3-trifluoropropyl)amino]ethoxy}pyridin-3-yl)-1,2-thiazole-4-carboxamide]
≥ 20 | 19 | Cc1nsc(Nc2cnc(C(F)(F)F)cn2)c1C(=O)Nc1ccc(OC2CCN(C(CF)CF)CC2)nc1 [Example 324, N-(6-{[1-(1,3-difluoropropan-2-yl)piperidin-4-yl]oxy}pyridin-3-yl)-3-methyl-5-{[5-(trifluoromethyl)pyrazin-2-yl]amino}-1,2-thiazole-4-carboxamide]
≥ 20 |  | Cc1nsc(Nc2cnc(C(F)(F)F)cn2)c1C(=O)Nc1ccc(OCCN(C)CC(F)(F)F)nc1 [Example 350, 3-methyl-N-(6-{2-[methyl(2,2,2-trifluoroethyl)amino]ethoxy}pyridin-3-yl)-5-{[5-(trifluoromethyl)pyrazin-2-yl]amino}-1,2-thiazole-4-carboxamide]
≥ 20 |  | Cc1nsc(Nc2cnc(C(F)(F)F)cn2)c1C(=O)Nc1ccc(OCCCN(C)CC(F)F)nc1 [Example 353, N-(6-{3-[(2,2-difluoroethyl)(methyl)amino]propoxy}pyridin-3-yl)-3-methyl-5-{[5-(trifluoromethyl)pyrazin-2-yl]amino}-1,2-thiazole-4-carboxamide]
≥ 20 |  | Cc1nsc(Nc2cnc(C(F)(F)F)cn2)c1C(=O)Nc1ccc(OCCCN(C)CCC(F)(F)F)nc1 [Example 355, 3-methyl-N-(6-{3-[methyl(3,3,3-trifluoropropyl)amino]propoxy}pyridin-3-yl)-5-{[5-(trifluoromethyl)pyrazin-2-yl]amino}-1,2-thiazole-4-carboxamide]
> 20 |  | Cc1nsc(Nc2cnc(C(F)(F)F)cn2)c1C(=O)Nc1ccc(O[C@H]2CCCN(CC(F)F)C2)nc1 [Example 388, N-(6-{[(3S)-1-(2,2-difluoroethyl)piperidin-3-yl]oxy}pyridin-3-yl)-3-methyl-5-{[5-(trifluoromethyl)pyrazin-2-yl]amino}-1,2-thiazole-4-carboxamide]
> 20 |  | Cc1nsc(Nc2cnc(C(F)(F)F)cn2)c1C(=O)Nc1ccc(O[C@H]2CCCN(CC(F)(F)F)C2)nc1 [Example 389, 3-methyl-N-(6-{[(3S)-1-(2,2,2-trifluoroethyl)piperidin-3-yl]oxy}pyridin-3-yl)-5-{[5-(trifluoromethyl)pyrazin-2-yl]amino}-1,2-thiazole-4-carboxamide]

More lines, now with the values behind:

SMILES | IC50 (CDK2/CycE) [µM] | IC50 [1] [µM]
Cc1nsc(Nc2ccc(C#N)cn2)c1C(=O)Nc1ccc(OC2CCN(CC(F)(F)F)CC2)nc1 [Example 30, 5-[(5-Cyanopyridin-2-yl)amino]-3-methyl-N-(6-{[1-(2,2,2-trifluoroethyl)piperidin-4-yl]oxy}pyridin-3-yl)-1,2-thiazole-4-carboxamide] | ≥ 20 | ≥ 20
Cc1nsc(Nc2cnc3ccccc3n2)c1C(=O)Nc1ccc(OC2CCCNC2)nc1 (centres unmarked) [Example 32, 3-Methyl-N-[6-(piperidin-3-yloxy)pyridin-3-yl]-5-(quinoxalin-2-ylamino)-1,2-thiazole-4-carboxannide] | ≥ 20 | ≥ 20
Cc1nsc(Nc2cc(C#N)ccn2)c1C(=O)Nc1ccc(OC2CCCN(C(=O)OC(C)(C)C)C2)nc1 (centres unmarked) [Example 34, tert-Butyl 3({5-[({5-[(4-cyanopyridin-2-yl)amino]-3-methyl-1,2-thiazol-4-yl}-carbonyl)amino]pyridin-2-yl}oxy)piperidine-1-carboxylate] | ≥ 20 | ≥ 20
Cc1nsc(Nc2cnc(C(F)(F)F)cn2)c1C(=O)Nc1ccc(OCCN(C)CCF)nc1 [Example 348, N-(6-{2-[(2-fluoroethyl)(methyl)amino]ethoxy}pyridin-3-yl)-3-methyl-5-{[5-(trifluoromethyl)pyrazin-2-yl]amino}-1,2-thiazole-4-carboxamide] | ≥ 20 | 
Cc1nsc(Nc2cnc(C(F)(F)F)cn2)c1C(=O)Nc1ccc(OCCN(C)CC(F)F)nc1 [Example 349, N-(6-{2-[(2,2-difluoroethyl)(methyl)amino]ethoxy}pyridin-3-yl)-3-methyl-5-{[5-(trifluoromethyl)pyrazin-2-yl]amino}-1,2-thiazole-4-carboxamide] | ≥ 20 | 
Cc1nsc(Nc2cnc(C(F)(F)F)cn2)c1C(=O)Nc1ccc(OCCCN(C)CC(F)(F)F)nc1 [Example 354, 3-methyl-N-(6-{3-[methyl(2,2,2-trifluoroethyl)amino]propoxy}pyridin-3-yl)-5-{[5-(trifluoromethyl)pyrazin-2-yl]amino}-1,2-thiazole-4-carboxamide] | ≥ 20 | 
Cc1nsc(Nc2cnc(C(F)(F)F)cn2)c1C(=O)Nc1ccc(O[C@@H]2CCN(CC(F)F)C[C@H]2F)nc1 [Example 366, N-(6-{[(3R,4R)-1-(2,2-difluoroethyl)-3-fluoropiperidin-4-yl]oxy}pyridin-3-yl)-3-methyl-5-{[5-(trifluoromethyl)pyrazin-2-yl]amino}-1,2-thiazole-4-carboxamide] | > 20 | 
Cc1nsc(Nc2cnc(C(F)(F)F)cn2)c1C(=O)Nc1ccc(O[C@@H]2CCCN(CC(F)F)C2)nc1 [Example 385, N-(6-{[(3R)-1-(2,2-difluoroethyl)piperidin-3-yl]oxy}pyridin-3-yl)-3-methyl-5-{[5-(trifluoromethyl)pyrazin-2-yl]amino}-1,2-thiazole-4-carboxamide] | > 20 | 
Cc1nsc(Nc2cnc(C(F)(F)F)cn2)c1C(=O)Nc1ccc(O[C@H]2CCCN(CCC(F)(F)F)C2)nc1 [Example 390, 3-methyl-5-{[5-(trifluoromethyl)pyrazin-2-yl]amino}-N-(6-{[(3S)-1-(3,3,3-trifluoropropyl)piperidin-3-yl]oxy}pyridin-3-yl)-1,2-thiazole-4-carboxamide] | > 20 | 
